Source: patent publication US9156810B2, “Treatment of inflammatory bowel disease” (ALLERGAN, INC., priority 2003, dated 2015)

Tests used:
hEP2 [1] = biological target: T1, hEP2 (Homo sapiens (Human), UniProt P43116); test: Radioligand binding ([3H]PGE2), HEK-293 cell membranes expressing EP2 receptor; settings: top number in Table 2
Method: (§1) HEK-293 cells stably expressing the human or feline FP receptor, or EP1, EP2, EP3, or EP4 receptors were washed with TME buffer, scraped from the bottom of the flasks, and homogenized for 30 sec using a Brinkman PT 10/35 polytron. TME buffer was added to achieve a final 40 ml volume in the centrifuge tubes (the composition of TME is 100 mM TRIS base, 20 mM MgCl2, […]; 10N HCl is added to achieve a pH of 7.4).
(§2) The cell homogenate was centrifuged at 19000 r.p.m. for 20 min at 4° C. using a Beckman Ti-60 rotor. The resultant pellet was resuspended in TME buffer to give a final 1 mg/ml protein concentration, as determined by Biorad assay. Radioligand binding competition assays vs. [^3H-]17-phenyl PGF2α, (5 nM) were performed in a 100 μl volume for 60 min. Binding reactions were started by adding plasma membrane fraction. The reaction was terminated by the addition of 4 ml ice-cold TRIS-HCl buffer and rapid filtration through glass fiber GF/B filters using a Brandel cell harvester. The filters were washed 3 times with ice-cold buffer and oven dried for one hour. Non-specific binding was determined with 10 uM unlabeled 17-phenyl PGF2α.
(§3) [^3H-] PGE2 (5 nM; specific activity 180 Ci mmol) was used as the radioligand for EP receptors. Binding studies employing EP1, EP2, EP3, EP4 were performed in duplicate in at least three separate experiments. A 200 μl assay volume was used. Incubations were for 60 min at 25° C. and were terminated by the addition of 4 ml of ice-cold 50 mM TRIS-HCl, followed by rapid filtration through Whatman GF/B filters and three additional 4 ml washes in a cell harvester (Brandel). Non-specific binding determined with 10^−5M of unlabeled PGE2.

hEP4 [2] = biological target: T2, hEP4 (Homo sapiens (Human), UniProt P35408); test: Radioligand binding ([3H]PGE2), HEK-293 cell membranes expressing EP4 receptor; settings: top number in Table 2
Method: as §1, §2, §3

hIP = hIP (Homo sapiens (Human), UniProt P43119); test: Table 2 top number, hIP (radioligand binding per footnote); settings: top number in Table 2
hEP4 [3] = biological target: T2, hEP4; test: FLIPR calcium signal, HEK-293(EBNA) cells expressing hEP4/Gqs5; assay type: cell-based; settings: bottom number in Table 2, read-out: hEP4 functional EC50
Method: (§4) HEK-293(EBNA) cells, stably expressing one type or subtype of recombinant human prostaglandin receptors (prostaglandin receptors expressed: hDP/Gqs5; hEP1; hEP2/Gqs5; hEP3A/Gqi5; hEP4/Gqs5; hFP; hIP; hTP), were cultured in 100 mm culture dishes in high-glucose DMEM medium containing 10% fetal bovine serum, 2 mM 1-glutamine, 250 μg/ml geneticin (G418) and 200 μg/ml hygromycin B as selection markers, and 100 units/ml penicillin G, 100 μg/m streptomycin and 0.25 μg/m amphotericin B.
(§5) Cells were seeded at a density of 5×10^4 cells per well in Biocoat® Poly-D-lysine-coated black-wall, clear-bottom 96-well plates (Becton-Dickinson) and allowed to attach overnight in an incubator at 37° C. Cells were then washed two times with HBSS-HEPES buffer (Hanks Balanced Salt Solution without bicarbonate and phenol red, 20 mM HEPES, pH 7.4) using a Denley Cellwash plate washer (Labsystems). After 45 minutes of dye-loading in the dark, using the calcium-sensitive dye Fluo-4 AM at a final concentration of 2 μM, plates were washed four times with HBSS-HEPES buffer to remove excess dye leaving 100 μl in each well. Plates were re-equilibrated to 37° C. for a few minutes.
Cells were excited with an Argon laser at 488 nm, and emission was measured through a 510-570 nm bandwidth emission filter (FLIPR™, Molecular Devices, Sunnyvale, Calif.). […] The peak increase in fluorescence intensity was recorded for each well. On each plate, four wells each served as negative (HBSS-HEPES buffer) and positive controls (standard agonists: BW245C (hDP); PGE2 (hEP1; hEP2/Gqs5; hEP3A/Gqi5; hEP4/Gqs5); PGF2 (hFP); carbacyclin (hIP); U-46619 (hTP), depending on receptor). The peak fluorescence change in each drug-containing well was then expressed relative to the controls.
(§6) Compounds were tested in a high-throughput (HTS) or concentration-response (CoRe) format. In the HTS format, forty-four compounds per plate were examined in duplicates at a concentration of 10^−5 M. To generate concentration-response curves, four compounds per plate were tested in duplicates in a concentration range between 10^−5 and 10^−11 M. The duplicate values were averaged.

hTP = hTP (Homo sapiens (Human), UniProt P21731); test: Table 2 top number, hTP (radioligand binding per footnote); settings: top number in Table 2
hEP3A = hEP3A (Homo sapiens (Human), UniProt P43115); test: FLIPR calcium signal, HEK-293(EBNA) cells expressing hEP3A/Gqi5; assay type: cell-based; settings: for EC50: bottom number in Table 2, read-out: hEP3A functional EC50
Method: as §4, §5
Cells were excited with an Argon laser at 488 nm, and emission was measured through a 510-570 nm bandwidth emission filter (FLIPR™, Molecular Devices, Sunnyvale, Calif.). Drug solution was added in a 50 μl volume to each well to give the desired final concentration. The peak increase in fluorescence intensity was recorded for each well. On each plate, four wells each served as negative (HBSS-HEPES buffer) and positive controls (standard agonists: BW245C (hDP); PGE2 (hEP1; hEP2/Gqs5; hEP3A/Gqi5; hEP4/Gqs5); PGF2 (hFP); carbacyclin (hIP); U-46619 (hTP), depending on receptor). The peak fluorescence change in each drug-containing well was then expressed relative to the controls.
as §6, with “averaged. In either, HTS or CoRe format each compound was tested on at least 3 separate plates using cells from different passages to give an n≧3.” for “averaged.”

hEP3D = hEP3D (Homo sapiens (Human), UniProt P43115); test: Radioligand binding ([3H]PGE2), HEK-293 cell membranes expressing EP3 receptor; settings: top number in Table 2
Method: as §1, §2, §3

hEP1 = hEP1 (Homo sapiens (Human), UniProt P34995); test: Radioligand binding ([3H]PGE2), HEK-293 cell membranes expressing EP1 receptor; settings: top number in Table 2
Method: as §1, §2, §3

hDP = hDP (Homo sapiens (Human), UniProt Q13258); test: Table 2 top number, hDP (radioligand binding per footnote); settings: top number in Table 2
hEP2 [4] = biological target: T1, hEP2; test: FLIPR calcium signal, HEK-293(EBNA) cells expressing hEP2/Gqs5; assay type: cell-based; settings: bottom number in Table 2, read-out: hEP2 functional EC50
Method: as §4
Cells were seeded at a density of 5×10^4 cells per well in Biocoat® Poly-D-lysine-coated black-wall, clear-bottom 96-well plates (Becton-Dickinson) and allowed to attach overnight in an incubator at 37° C. Cells were then washed two times with HBSS-HEPES buffer (Hanks Balanced Salt Solution without bicarbonate and phenol red, 20 mM HEPES, pH 7.4) using a Denley Cellwash plate washer (Labsystems). […]
Cells were excited with an Argon laser at 488 nm, and emission was measured through a 510-570 nm bandwidth emission filter (FLIPR™, Molecular Devices, Sunnyvale, Calif.). […] The peak increase in fluorescence intensity was recorded for each well. […] The peak fluorescence change in each drug-containing well was then expressed relative to the controls. […]

Sequence of hEP3A (P43115 whole entry): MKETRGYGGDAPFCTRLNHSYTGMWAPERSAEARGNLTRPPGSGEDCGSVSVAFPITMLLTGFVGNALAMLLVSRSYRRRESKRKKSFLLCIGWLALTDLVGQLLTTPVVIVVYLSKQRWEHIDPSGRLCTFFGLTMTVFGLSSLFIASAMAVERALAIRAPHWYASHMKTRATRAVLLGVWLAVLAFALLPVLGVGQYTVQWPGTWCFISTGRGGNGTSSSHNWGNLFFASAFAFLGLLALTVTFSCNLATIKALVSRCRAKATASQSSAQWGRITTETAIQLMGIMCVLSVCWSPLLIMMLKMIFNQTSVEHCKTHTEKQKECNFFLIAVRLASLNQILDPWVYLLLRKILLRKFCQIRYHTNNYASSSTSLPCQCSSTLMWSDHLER
Sequence of hTP (P21731 whole entry): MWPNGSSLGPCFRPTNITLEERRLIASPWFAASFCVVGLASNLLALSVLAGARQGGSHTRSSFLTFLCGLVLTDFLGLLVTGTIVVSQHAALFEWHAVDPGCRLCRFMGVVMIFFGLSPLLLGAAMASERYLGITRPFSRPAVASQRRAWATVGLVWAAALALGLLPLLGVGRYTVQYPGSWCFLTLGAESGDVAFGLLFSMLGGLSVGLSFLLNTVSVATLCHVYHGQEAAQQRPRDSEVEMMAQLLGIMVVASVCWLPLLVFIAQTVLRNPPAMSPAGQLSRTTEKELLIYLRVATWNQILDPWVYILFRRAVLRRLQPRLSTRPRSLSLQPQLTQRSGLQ
T2 sequence (P35408 whole entry, looked up): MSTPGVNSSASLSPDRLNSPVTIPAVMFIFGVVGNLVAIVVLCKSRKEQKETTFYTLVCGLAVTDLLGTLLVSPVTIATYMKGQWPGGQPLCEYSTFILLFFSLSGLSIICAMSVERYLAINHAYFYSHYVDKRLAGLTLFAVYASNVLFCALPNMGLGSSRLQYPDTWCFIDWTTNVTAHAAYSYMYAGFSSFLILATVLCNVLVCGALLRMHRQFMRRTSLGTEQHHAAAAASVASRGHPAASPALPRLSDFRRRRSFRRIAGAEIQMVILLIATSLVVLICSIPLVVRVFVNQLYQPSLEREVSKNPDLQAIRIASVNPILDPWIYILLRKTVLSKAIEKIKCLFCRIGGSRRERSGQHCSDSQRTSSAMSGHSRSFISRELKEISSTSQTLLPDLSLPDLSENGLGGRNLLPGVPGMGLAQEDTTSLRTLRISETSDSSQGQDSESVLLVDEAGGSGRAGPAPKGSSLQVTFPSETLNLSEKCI
Sequence of hIP (P43119 whole entry): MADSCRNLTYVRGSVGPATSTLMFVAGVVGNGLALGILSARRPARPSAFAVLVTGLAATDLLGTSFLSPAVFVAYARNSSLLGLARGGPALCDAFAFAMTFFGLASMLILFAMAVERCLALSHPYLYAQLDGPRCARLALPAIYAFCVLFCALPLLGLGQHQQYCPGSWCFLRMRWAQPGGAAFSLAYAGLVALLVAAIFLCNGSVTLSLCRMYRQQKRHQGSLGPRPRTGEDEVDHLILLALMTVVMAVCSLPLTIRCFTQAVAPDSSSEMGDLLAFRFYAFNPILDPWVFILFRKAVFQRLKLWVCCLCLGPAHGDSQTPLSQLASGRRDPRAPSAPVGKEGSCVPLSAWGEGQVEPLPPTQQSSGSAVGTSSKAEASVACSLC
T1 sequence (P43116 whole entry): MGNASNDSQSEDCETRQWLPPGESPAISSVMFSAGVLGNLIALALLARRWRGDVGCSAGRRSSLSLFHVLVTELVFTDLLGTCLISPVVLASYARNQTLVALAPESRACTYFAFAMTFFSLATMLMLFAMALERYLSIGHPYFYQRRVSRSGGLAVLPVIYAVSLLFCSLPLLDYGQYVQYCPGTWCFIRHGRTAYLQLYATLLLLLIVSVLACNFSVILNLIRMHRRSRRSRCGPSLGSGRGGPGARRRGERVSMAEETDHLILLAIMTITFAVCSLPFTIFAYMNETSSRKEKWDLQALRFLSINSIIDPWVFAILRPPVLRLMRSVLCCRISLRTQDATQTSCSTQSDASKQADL
Sequence of hEP3D (P43115 other isoform, or with tags, fused parts or gaps): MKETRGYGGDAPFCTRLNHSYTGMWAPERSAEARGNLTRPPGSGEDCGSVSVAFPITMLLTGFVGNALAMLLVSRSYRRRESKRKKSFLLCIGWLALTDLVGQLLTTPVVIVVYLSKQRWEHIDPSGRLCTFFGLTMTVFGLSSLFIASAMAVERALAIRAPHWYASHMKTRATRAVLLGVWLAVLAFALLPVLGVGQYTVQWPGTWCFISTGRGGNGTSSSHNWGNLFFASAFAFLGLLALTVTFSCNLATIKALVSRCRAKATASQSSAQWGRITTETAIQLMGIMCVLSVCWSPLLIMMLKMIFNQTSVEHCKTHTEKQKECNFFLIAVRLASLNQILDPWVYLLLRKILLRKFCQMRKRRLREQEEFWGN
Sequence of hEP1 (P34995 whole entry): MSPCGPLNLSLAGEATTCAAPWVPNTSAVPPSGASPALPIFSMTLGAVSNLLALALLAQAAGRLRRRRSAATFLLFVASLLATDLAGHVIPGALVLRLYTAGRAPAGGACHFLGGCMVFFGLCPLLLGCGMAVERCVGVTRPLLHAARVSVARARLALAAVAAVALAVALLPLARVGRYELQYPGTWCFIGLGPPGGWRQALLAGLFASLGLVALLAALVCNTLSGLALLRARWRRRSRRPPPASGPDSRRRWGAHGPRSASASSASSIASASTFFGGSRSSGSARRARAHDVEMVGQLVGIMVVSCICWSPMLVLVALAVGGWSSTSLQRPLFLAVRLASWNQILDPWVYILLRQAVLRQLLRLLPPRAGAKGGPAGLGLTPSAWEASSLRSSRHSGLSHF
Sequence of hDP (Q13258 whole entry): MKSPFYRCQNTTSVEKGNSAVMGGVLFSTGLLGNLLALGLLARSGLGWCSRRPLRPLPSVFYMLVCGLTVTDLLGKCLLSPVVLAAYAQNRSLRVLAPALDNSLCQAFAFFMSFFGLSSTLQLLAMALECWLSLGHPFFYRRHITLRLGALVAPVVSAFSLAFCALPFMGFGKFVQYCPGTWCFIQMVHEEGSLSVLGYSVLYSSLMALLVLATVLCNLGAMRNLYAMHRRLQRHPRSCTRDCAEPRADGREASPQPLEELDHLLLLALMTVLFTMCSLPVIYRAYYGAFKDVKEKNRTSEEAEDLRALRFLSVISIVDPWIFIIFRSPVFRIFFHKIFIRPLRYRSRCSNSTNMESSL

| Compound | hEP2 radioligand binding IC50 (hEP2 [1]) | IC50 (hEP4 [2]) | EC50 (hEP4 [3]) | EC50 (hEP3A) | IC50 (hEP1) | IC50 (hEP3D) | IC50 (hTP) | further results |
| --- | --- | --- | --- | --- | --- | --- | --- | --- |
| COC(=O)CSCCCS[C@H]1C(=O)C(C)(C)[C@@H](O)[C@@H]1/C=C/C(O)CCc1sc2ccccc2c1Cl (single isomer, unassigned) [Compound 21] | > 10000 nM | 98 nM | – | – | – | – | – | – |
| CC1(C)C(=O)[C@H](CC#CCCCC(=O)O)[C@@H](/C=C/C(O)CCc2sc3ccccc3c2Cl)[C@@H]1O (single isomer, unassigned) [Compound 36] | – | 200 nM | 66 nM | – | – | – | – | hIP radioligand binding IC50 (hIP): > 10000 nM |
| CC1(C)C(=O)[C@H](CC#CCCCC(=O)O)[C@@H](/C=C/C(O)CCc2sc3ccccc3c2Cl)[C@@H]1O (single isomer, unassigned) [Compound 37] | – | 100 nM | 32 nM | – | – | – | – | hIP radioligand binding IC50 (hIP): > 10000 nM |
| CC1(C)C(=O)[C@H](C/C=C\CCCC(=O)O)[C@@H](/C=C/C(O)CCc2sc3ccccc3c2Cl)[C@@H]1O (single isomer, unassigned) [Compound 41] | > 10000 nM | 20 nM | – | – | – | – | – | hTP radioligand binding IC50 (hTP): > 10000 nM |
| CC1(C)C(=O)[C@H](C/C=C\CCCC(=O)O)[C@@H](/C=C/C(O)Cc2ccccc2)[C@@H]1O (single isomer, unassigned) [Compound 46] | > 10000 nM | 4 nM | 0.4 nM | 589 nM | 290 nM | – | – | hEP3D radioligand binding IC50 (hEP3D): > 10000 nM |
| COC(=O)CCC/C=C\C[C@H]1C(=O)C(C)(C)[C@@H](O)[C@@H]1/C=C/C(O)CCc1ccccc1 (single isomer, unassigned) [Compound 50] | – | 2400 nM | 3160 nM | – | 638 nM | 6610 nM | – | hTP radioligand binding IC50 (hTP): > 10000 nM; hEP3A functional EC50 (hEP3A; bottom number in Table 2): > 10000 nM |
| CCCCC[C@H](O)/C=C/[C@@H]1[C@@H](CC#CCCCC(=O)O)C(=O)C(C)(C)[C@H]1O [Compound 43, 7-[(1R,4S,5R)-4-Hydroxy-5-((E)-(S)-3-hydroxy-oct-1-enyl)-3,3-dimethyl-2-oxo-cyclopentyl]-hept-5-ynoic acid] | – | 400 nM | 63 nM | 11 nM | > 10000 nM | 1700 nM | 18 nM | IC50 (hIP): 3980 nM |
| CCCCC[C@H](O)/C=C/[C@@H]1[C@@H](C/C=C\CCCC(=O)O)C(=O)C(C)(C)[C@H]1O [Compound 44, (Z)-7-[(1R,4S,5R)-4-Hydroxy-5-((E)-(S)-3-hydroxy-oct-1-enyl)-3,3-dimethyl-2-oxo-cyclopentyl]-hept-5-enoic acid] | – | 5.5 nM | 0.2 nM | 4.6 nM | 782 nM | 300 nM | 18 nM | IC50 (hIP): 284 nM; hDP radioligand binding IC50 (hDP): > 10000 nM; IC50 (hEP2 [1]): 1500 nM; EC50 (hEP2 [4]): 944 nM |
| CCCCC[C@H](O)/C=C/[C@@H]1[C@@H](C/C=C\CCCC(=O)OC)C(=O)C(C)(C)[C@H]1O [Compound 45, (Z)-7-[(1R,4S,5R)-4-Hydroxy-5-((E)-(S)-3-hydroxy-oct-1-enyl)-3,3-dimethyl-2-oxo-cyclopentyl]-hept-5-enoic acid methyl ester] | – | 400 nM | 51 nM | 531 nM | – | > 10000 nM | 631 nM | – |
